Assay results taken from PubChem BioAssay (NCI).
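96-well plates; 48 h exposure; 5 concentrations. Endpoints by linear interpolation between flanking doses. Not reached: highest tested concentration assigned. TGI: total growth inhibition.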

How the values were obtained:
Assay in all cases: NCI tumour cell line growth inhibition, 48 h
K-562 leukemia = system: K-562 leukemia
MCF7 breast = system: MCF7 breast
BT-549 breast = system: BT-549 breast
NCI-H522 lung = system: NCI-H522 lung
PC-3 prostate = system: PC-3 prostate
DU-145 prostate = system: DU-145 prostate
786-0 renal = system: 786-0 renal
UO-31 renal = system: UO-31 renal
KM12 colon = system: KM12 colon
ACHN renal = system: ACHN renal
NCI-H23 lung = system: NCI-H23 lung
HCT-15 colon = system: HCT-15 colon
SK-MEL-28 melanoma = system: SK-MEL-28 melanoma
MDA-MB-435 = system: MDA-MB-435
LOX IMVI melanoma = system: LOX IMVI melanoma
RXF 393 renal = system: RXF 393 renal
SR leukemia = system: SR leukemia
SK-OV-3 ovarian = system: SK-OV-3 ovarian
SNB-75 CNS = system: SNB-75 CNS
OVCAR-8 ovarian = system: OVCAR-8 ovarian
IGROV1 ovarian = system: IGROV1 ovarian
HOP-62 NSCLC = system: HOP-62 NSCLC
MDA-N = system: MDA-N
MALME-3M melanoma = system: MALME-3M melanoma
SF-539 CNS = system: SF-539 CNS
EKVX NSCLC = system: EKVX NSCLC
OVCAR-4 ovarian = system: OVCAR-4 ovarian
MOLT-4 leukemia = system: MOLT-4 leukemia
NCI/ADR-RES ovarian = system: NCI/ADR-RES ovarian
OVCAR-3 ovarian = system: OVCAR-3 ovarian
SNB-19 CNS = system: SNB-19 CNS
NCI-H460 lung = system: NCI-H460 lung
COLO 205 colon = system: COLO 205 colon
SK-MEL-5 melanoma = system: SK-MEL-5 melanoma
A549 NSCLC = system: A549 NSCLC
T-47D breast = system: T-47D breast
HS 578T breast = system: HS 578T breast
UACC-62 melanoma = system: UACC-62 melanoma
CCRF-CEM leukemia = system: CCRF-CEM leukemia
HCT-116 colon = system: HCT-116 colon
M14 melanoma = system: M14 melanoma
SF-295 CNS = system: SF-295 CNS
UACC-257 melanoma = system: UACC-257 melanoma
SN12C renal = system: SN12C renal
HL-60(TB) leukemia = system: HL-60(TB) leukemia
TK-10 renal = system: TK-10 renal
U251 CNS = system: U251 CNS
HCC-2998 colon = system: HCC-2998 colon
CAKI-1 renal = system: CAKI-1 renal
OVCAR-5 ovarian = system: OVCAR-5 ovarian
SK-MEL-2 melanoma = system: SK-MEL-2 melanoma
HT29 colon = system: HT29 colon
NCI-H226 lung = system: NCI-H226 lung
MDA-MB-231 breast = system: MDA-MB-231 breast
SW-620 colon = system: SW-620 colon
SF-268 CNS = system: SF-268 CNS
HOP-92 NSCLC = system: HOP-92 NSCLC
A498 renal = system: A498 renal
RPMI-8226 leukemia = system: RPMI-8226 leukemia

Measured: TGI

COC(=O)C(Cc1ccc(OC)cc1O)NC(=O)OC(C)(C)C (stereo not drawn)
95 µM: UACC-257 melanoma
not listed: HOP-92 NSCLC | A498 renal | RPMI-8226 leukemia
> 100 µM: all other assays above

CC(=O)OC1C[C@@H](C)C2(CC(c3ccoc3)OC2=O)C2CCC(O)C3(CO3)C12CO (stereo partly drawn)
not listed: SK-OV-3 ovarian | EKVX NSCLC
> 100 µM: all other assays above
